Reference: patent US20250129070A1, “BIFUNCTIONAL ANDROGEN RECEPTOR COMPOUNDS” (priority 2023, published 2025)

These molecules were tested on AR / CBP ternary complex (assay: Ternary complex formation assay (sandwich ELISA, AR capture / CBP detection) in VCaP cell lysates). Settings: 1.5 hours treatment, sandwich ELISA (AR capture, CBP or p300 detection).
Format: cell-based
Procedure: Preparation of Mouse Anti-AR Antibody Coated 96 Well Plates
Black MaxiSorp plates: coat with 50 μL of mouse 1/50 diluted AR antibody (Monoclonal Antibody (AR 441 from Thermo Fisher); diluted in phosphate buffered saline (PBS). Spin the liquid to the bottom of the wells, if necessary. Incubate overnight at 4° C. Next day, wash 3 times with 200 μL of TBST. Block with 200 μL of blocking buffer (5% BSA in TBST) at room temperature for 2 hours (BSA: A4503 or A2153 from Sigma). Wash plates 3 times with TBST. Plates are ready for lysates Preparation of dimerizer treated lysates
Culture cells in 96 wells at 50K VCaP cells/well for at least 3 days. Plate in 5% Omega charcoal stripped FBS in total volume of 200 uL. Treat with bifunctional for 1.5 hours by adding 1 μL of 200× stock in DMSO. Aspirate media/compound. Add and pipet-to-mix 70 μL of 1× AlphaLisa Lysis Buffer to each well (Perkin Elmer, AlphaLISA SureFire Ultra, diluted in water). Pipet up and down when adding lysis buffer to disrupt cells. Let lysis proceed for 30 min at 4° C.
Incubate for 1 hour at room temperature. Flick out the lysates. Wash 3 times with TBST. Add 75 μL of rabbit CBP or p300 antibody to each well (diluted 1:5000 in blocking buffer (5% BSA in TBST). CBP antibody: (D6C5) Rabbit mAb #7389; p300 antibody: (D8Z4E) Rabbit mAb #86377. Incubate overnight at 4° C. Wash 3 times with 300 uL TBST, each time on shaker for 5-10 min. Prepare goat anti-rabbit antibody conjugated to HRP (1/100K dilution in blocking buffer) Invitrogen Catalog number: 32260. Add 75 μL of HRP-conjugated goat anti-rabbit antibody. Incubate at room temperature for 1 hour. Flick out the HRP-antibody mixture. Wash 7-8 times with TBST, each time on shaker for 10 min. Later washes try to overflow the wells so that no residual HRP remains bound to the sides of the well. Prepare and add 75 uL/well of QuantaRed Enhance Chemifluorescent HRP Substrate solution. Immediately read fluorescence on BMG ClarioStar (ex: 570/em 585), and repeat the read in 5 minutes and 15 minutes.

Compound | EC50 [nM]
CNC(=O)N1CCc2c(c(N3CCCc4cc(-c5cnn(C)c5)c(C(F)F)cc43)nn2C2CCN(CCOCc3ncc(C(=O)NC4C(C)(C)C(Oc5ccc(C#N)c(Cl)c5)C4(C)C)cn3)CC2)C1 (centres unmarked) [Compound 86, 1-[1-[2-[[5-[[3-(3-chloro-4-cyano-phenoxy)-2,2,4,4-tetramethyl-cyclobutyl]carbamoyl]pyrimidin-2-yl]methoxy]ethyl]-4-piperidyl]-3-[7-(difluoromethyl)-6-(1-methylpyrazol-4-yl)-3,4-dihydro-2H-quinolin-1-yl]-N-methyl-6,7-dihydro-4H-pyrazolo[4,3-c]pyridine-5-carboxamide] | > 100
CC(=O)N1CCc2c(c(-c3cccc4cc(-c5ccc(C(=O)N6CCC(OCc7ncc(C(=O)NC8C(C)(C)C(Oc9ccc(C#N)c(Cl)c9)C8(C)C)cn7)C6)nc5)ncc34)nn2C2CCOCC2)C1 (racemic) [Compound 131, N-[3-(3-chloro-4-cyano-phenoxy)-2,2,4,4-tetramethyl-cyclobutyl]-2-[[rac-(3S)-1-[5-[8-(5-acetyl-1-tetrahydropyran-4-yl-6,7-dihydro-4H-pyrazolo[4,3-c]pyridin-3-yl)-3-isoquinolyl]pyridine-2-carbonyl]pyrrolidin-3-yl]oxymethyl]pyrimidine-5-carboxamide] | < 1
CC(=O)N1CCc2c(c(-c3cccc4cc(-c5ccc(COCC6CCN(c7ncc(C(=O)NC8C(C)(C)C(Oc9ccc(C#N)c(Cl)c9)C8(C)C)cn7)CC6)nc5)ncc34)nn2C2CCOCC2)C1 (centres unmarked) [Compound 143, 2-[4-[[5-[8-(5-acetyl-1-tetrahydropyran-4-yl-6,7-dihydro-4H-pyrazolo[4,3-c]pyridin-3-yl)-3-isoquinolyl]-2-pyridyl]methoxymethyl]-1-piperidyl]-N-[3-(3-chloro-4-cyano-phenoxy)-2,2,4,4-tetramethyl-cyclobutyl]pyrimidine-5-carboxamide] | < 1
CC(=O)N1CCc2c(c(-c3cccc4cc(-c5cnn(CCOC6CCN(c7ncc(C(=O)NC8C(C)(C)C(Oc9ccc(C#N)c(Cl)c9)C8(C)C)cn7)CC6)c5)ncc34)nn2C2CCOCC2)C1 (centres unmarked) [Compound 138, 2-[4-[2-[4-[8-(5-acetyl-1-tetrahydropyran-4-yl-6,7-dihydro-4H-pyrazolo[4,3-c]pyridin-3-yl)-3-isoquinolyl]pyrazol-1-yl]ethoxy]-1-piperidyl]-N-[3-(3-chloro-4-cyano-phenoxy)-2,2,4,4-tetramethyl-cyclobutyl]pyrimidine-5-carboxamide] | < 1
COc1cc(OC2C(C)(C)C(NC(=O)c3ccc(N4CCC(N(C)C5CCC(n6nc(N7CCCc8cc(-c9cnn(C)c9)c(C(F)F)cc87)c7c6CCN(C(C)=O)C7)CC5)CC4)cc3)C2(C)C)ccc1C#N (centres unmarked) [Compound 280, 4-[4-[[4-[5-acetyl-3-[7-(difluoromethyl)-6-(1-methylpyrazol-4-yl)-3,4-dihydro-2H-quinolin-1-yl]-6,7-dihydro-4H-pyrazolo[4,3-c]pyridin-1-yl]cyclohexyl]-methyl-amino]-1-piperidyl]-N-[3-(4-cyano-3-methoxy-phenoxy)-2,2,4,4-tetramethyl-cyclobutyl]benzamide] | < 1
CC(=O)N1CCc2c(c(N3CCCc4cc(-c5cnn(C)c5)c(C(F)F)cc43)nn2C2CCN(CC3CCN(c4ccc(C(=O)NC5C(C)(C)C(Oc6ccc(C#N)c(Cl)c6)C5(C)C)nn4)CC3)CC2)C1 (centres unmarked) [Compound 117, 6-[4-[[4-[5-acetyl-3-[7-(difluoromethyl)-6-(1-methylpyrazol-4-yl)-3,4-dihydro-2H-quinolin-1-yl]-6,7-dihydro-4H-pyrazolo[4,3-c]pyridin-1-yl]-1-piperidyl]methyl]-1-piperidyl]-N-[3-(3-chloro-4-cyano-phenoxy)-2,2,4,4-tetramethyl-cyclobutyl]pyridazine-3-carboxamide] | 1 to 10
COc1cc(OC2C(C)(C)C(NC(=O)c3ccc(N4CCC(C5CCC(n6nc(N7CCCc8cc(-c9cnn(C)c9)c(C(F)F)cc87)c7c6CCN(C(C)=O)C7)CC5)CC4)cc3)C2(C)C)ccc1C#N (centres unmarked) [Compound 259, 4-[4-[4-[5-acetyl-3-[7-(difluoromethyl)-6-(1-methylpyrazol-4-yl)-3,4-dihydro-2H-quinolin-1-yl]-6,7-dihydro-4H-pyrazolo[4,3-c]pyridin-1-yl]cyclohexyl]-1-piperidyl]-N-[3-(4-cyano-3-methoxy-phenoxy)-2,2,4,4-tetramethyl-cyclobutyl]benzamide] | 1 to 10

Second part, the molecule after the results:

EC50 [nM] | Compound
< 1 | CC(=O)N1CCc2c(c(N3CCCc4cc(-c5cnn(C)c5)c(C(F)F)cc43)nn2C2CCC(OC3CN(c4ncc(C(=O)NC5C(C)(C)C(Oc6ccc(C#N)c(Cl)c6)C5(C)C)cn4)C3)CC2)C1 (centres unmarked) [Compound 340, 2-[3-[4-[5-acetyl-3-[7-(difluoromethyl)-6-(1-methylpyrazol-4-yl)-3,4-dihydro-2H-quinolin-1-yl]-6,7-dihydro-4H-pyrazolo[4,3-c]pyridin-1-yl]cyclohexoxy]azetidin-1-yl]-N-[3-(3-chloro-4-cyano-phenoxy)-2,2,4,4-tetramethyl-cyclobutyl]pyrimidine-5-carboxamide]
< 1 | CC(=O)N1CCc2c(c(N3CCCc4cc(-c5cn(C)cn5)c(C(F)F)cc43)nn2C2CCN(CC3C(C)CN(c4ncc(C(=O)NC5C(C)(C)C(Oc6ccc(C#N)c(Cl)c6)C5(C)C)cn4)CC3C)CC2)C1 (centres unmarked) [Compound 425, 2-[4-[[4-[5-acetyl-3-[7-(difluoromethyl)-6-(1-methylimidazol-4-yl)-3,4-dihydro-2H-quinolin-1-yl]-6,7-dihydro-4H-pyrazolo[4,3-c]pyridin-1-yl]-1-piperidyl]methyl]-3,5-dimethyl-1-piperidyl]-N-[3-(3-chloro-4-cyano-phenoxy)-2,2,4,4-tetramethyl-cyclobutyl]pyrimidine-5-carboxamide]
10 to 100 | CC(=O)N1CCc2c(c(N3CCCc4cc(-c5cnn(C)c5)c(C(F)F)cc43)nn2C2CCC3(CC2)CCN(c2ncc(C(=O)NC4C(C)(C)C(Oc5ccc(C#N)c(Cl)c5)C4(C)C)cn2)C3)C1 (centres unmarked) [Compound 407, 2-[8-[5-acetyl-3-[7-(difluoromethyl)-6-(1-methylpyrazol-4-yl)-3,4-dihydro-2H-quinolin-1-yl]-6,7-dihydro-4H-pyrazolo[4,3-c]pyridin-1-yl]-2-azaspiro[4.5]decan-2-yl]-N-[3-(3-chloro-4-cyano-phenoxy)-2,2,4,4-tetramethyl-cyclobutyl]pyrimidine-5-carboxamide]
< 1 | CC(=O)N1CCc2c(c(N3CCCc4cc(-c5cnn(C)c5)c(C(F)F)cc43)nn2C2CCN(CC3C(C)CN(c4ncc(C(=O)NC5C(C)(C)C(Oc6ccc(C#N)c(C(F)(F)F)c6)C5(C)C)cn4)CC3C)CC2)C1 (centres unmarked) [Compound 463, 2-[4-[[4-[5-acetyl-3-[7-(difluoromethyl)-6-(1-methylpyrazol-4-yl)-3,4-dihydro-2H-quinolin-1-yl]-6,7-dihydro-4H-pyrazolo[4,3-c]pyridin-1-yl]-1-piperidyl]methyl]-3,5-dimethyl-1-piperidyl]-N-[3-[4-cyano-3-(trifluoromethyl)phenoxy]-2,2,4,4-tetramethyl-cyclobutyl]pyrimidine-5-carboxamide]
